AC50, IC50 and EC50 data for five compounds are collected here from ChEMBL document CHEMBL1201862, “PubChem BioAssay data set” (2004).

A short description of test [1]: cytotoxicity in OVCAR8 ovarian cancer cells, dose response, PAX8 project, cell-based, plate reader, dry powder samples (AID 743197). The test is classed as functional. The following applies: OVCAR-8.
The nature of test [2]: HepG2 cell cytotoxicity, dose response, cytotoxicity control, cherry-picked samples (AID 1159577). It is filed as functional, cell-based.
Test [3] is described as follows: P. falciparum Dd2 growth inhibitors, dose response, SYBR Green, cherry-picked samples (AID 1159567). It is filed as functional, cell-based.
For the next test, the target named is Paired box protein Pax-8 (Homo sapiens, UniProt Q06710). The experiment in a line: inhibitors of PAX8-driven TPO luciferase reporter, dose response, RMG-I cells, cherry-pick (AID 687027).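 Further: luciferase reporter driven by Pax8 target thyroperoxidase promoter measured by SteadyGlo luminescence.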 It is filed as functional, cell-based. A general note: In a reporter assay the amount or activity of a reporter protein is the signal.
Test [4] is described as follows: NIH:OVCAR-3 ovarian cancer cell cytotoxicity, dose response, PAX8 inhibitor project, plate reader, dry powder samples (AID 743044). The test is classed as functional, cell-based.
Test [5] is described as follows: cells.
The target in the next test is Major prion protein (Homo sapiens, UniProt P04156). The test is classed as functional, cell-based.
Test [6] concerns the target T1, Polyadenylate-binding protein 1 (Homo sapiens, UniProt P11940). As to the kind of experiment: PABP1 MLLE–PAM2 binding inhibitor potency, dose response, biochemical, fluorescence polarization, FITC-PAM2 peptide (AID 602259). The test is classed as functional. Conditions: read-out: IC50_Mean. In general terms: Fluorescence polarisation rises when a labelled molecule tumbles more slowly, as on binding a larger partner.

The target of test [7] is T1, Polyadenylate-binding protein 1. As to the kind of experiment: PABP1 MLLE–PAM2 interaction inhibitors, dose response, miRNA deadenylation inhibitor project, biochemical, fluorescence polarization, Cy5-PAM2 peptide, secondary (AID 602260). Conditions: read-out: IC50_Mean. It is filed as functional.
The nature of test [8]: IGROV1 ovarian cancer cell cytotoxicity, dose response, PAX8 inhibitor project, plate reader, dry powder samples (AID 743043). It is filed as functional, cell-based. The following applies: IGROV-1.
A short description of test [9]: non-specific cell cytotoxicity, dose response, cytotoxicity control for PAX8 inhibitor project, plate reader, dry powder samples (AID 743021). It is filed as functional, cell-based.
A short description of test [10]: cells. Conditions: HEK293.
A short description of test [11]: cells. The following applies: A549.
The nature of test [12]: cytotoxicity toward NIH3T3 fibroblasts, dose response, counter-screen, cell-based, ATP luminescence, mouse fibroblasts (AID 2010).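 Further: cells exposed to compound for about 90 hours before reading.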 It is filed as functional. On the technique in general: The purpose of a counterscreen is to sort out artefacts and off-target activity.
A short description of test [13]: inhibitors of intracellular T. cruzi replication, confirmation, NIH3T3 host cells, beta-gal luminescence (AID 2044).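 Further: intracellular parasites grown in NIH/3T3 mouse fibroblasts as host cells; luminescent beta-galactosidase reporter signal from transgenic T. cruzi replicating inside host cells; inhibitors lower the luminescence signal.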 It is filed as functional, cell-based.

Molecules are shown by their SMILES. Activity calls are given as the source filed them. Where only a bound is given, the exact number is not on record here.

The AC50 is the concentration at which the activity in the assay is half-maximal. Take `O=C(C1CCCC1)N1CC[C@@H]2[C@H](CO)Nc3ccc(C4=CCCCC4)cc3[C@@H]21`: the AC50 was 33.1 µM (active) in test [1]; > 39 µM (inactive) in test [2]; 5.7 µM (active) in [3]; 12.7 µM (active) on Paired box protein Pax-8; 25.5 µM (active) in test [4].
On to `Brc1ccc2nc(-c3ccco3)c(Cc3ccccc3)n2c1`, for which the IC50 in “cells [5]” is 113 µM (inactive); on Major prion protein, 6.67 µM (active).
Consider `O=C(CSc1nc(Cc2ccccc2)nc2ccccc12)Nc1ccc2c(c1)OCCO2`, for which the IC50 in test [6] is > 66 µM (inactive); in “cells [5]” it was 45.6 µM (inactive); on Major prion protein it was 5.39 µM (active); in [7], > 66 µM (inactive).
As for `COc1ccccc1NC(=O)N1CCCCN2[C@H](CO)[C@H](c3ccc(-c4cccc(C)c4)cc3)[C@H]2C1`, the concentration at half-maximal activity (AC50) in test [8] was 64.1 µM (active); in [2] it was 9.66 µM (active); in [3], 1.44 µM (active); on Paired box protein Pax-8, 14.6 µM (active); in test [9], 2.56 µM (active); in test [4], 22.8 µM (active).
One may read the EC50 as the concentration giving half of the maximal effect. With `Cc1ccc2nc3c(cc(C(N)=S)c(=N)n3CCCOC(C)C)c(=O)n2c1`, the AC50 in the test “cells [10]” is > 52 µM (inactive); in the test “cells [11]”, 33.9 µM (active). For the same compound, the EC50 in [12] was 9.45 µM (active); in test [13], 4.43 µM (active).
